In general, IC50 refers to the concentration needed to halve the response being measured.

The values that follow come from patent publication US9670227B2, “Thienopyrimidine derivatives, a process for their preparation and pharmaceutical compositions containing them” (LES LABORATOIRES SERVIER, priority 2013, dated 2017).

In test [1] the test system is H929 multiple myeloma tumour line. Description: In vitro cytotoxicity, Microculture Tetrazolium Assay. The format is cell-based. As to conditions: H929 cells, 48 hours exposure, MTT, read-out: IC50 (μM) MTT H929. How it is done:
The cytotoxicity studies were carried out on the H929 multiple myeloma tumour line.
The cells are distributed onto microplates and exposed to the test compounds for 48 hours.

Another test has as its target Mcl-1 protein (UniProtKB primary accession number: Q07820) (Homo sapiens, UniProt Q07820). The experiment in a line: Inhibition of Mcl-1 by fluorescence polarisation, Method 1. The format is binding. As to conditions: fluorescence polarisation test; Method 2 values are underlined in the patent (underlining not visible here); read-out: IC50 (M) Mcl-1 FP. The method in brief: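 An 11-point DMSO dilution of compound is mixed with buffer (10 mM HEPES, 150 mM NaCl, 0.05% Tween 20, pH 7.4) carrying 1 nM fluorescein-labelled ligand and 5 nM Mcl-1, final concentrations. Displacement is monitored by fluorescence polarisation.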

The structures appear in SMILES notation. Like-named read-outs stand apart in the source and are kept apart here.

Sequence of Mcl-1 protein (Q07820 whole entry): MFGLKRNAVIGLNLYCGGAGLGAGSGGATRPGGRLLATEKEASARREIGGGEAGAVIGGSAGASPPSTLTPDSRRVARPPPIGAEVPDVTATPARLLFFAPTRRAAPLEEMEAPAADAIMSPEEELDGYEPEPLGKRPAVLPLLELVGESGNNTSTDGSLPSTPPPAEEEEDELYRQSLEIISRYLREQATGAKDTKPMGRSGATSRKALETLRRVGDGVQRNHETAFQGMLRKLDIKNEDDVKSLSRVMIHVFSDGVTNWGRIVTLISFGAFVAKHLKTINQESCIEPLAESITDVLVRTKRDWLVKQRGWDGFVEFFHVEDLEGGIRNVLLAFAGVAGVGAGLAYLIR

With `Cc1c(-c2c(-c3ccc(F)cc3)sc3ncnc(OC(Cc4ccccc4OCc4cnccn4)C(=O)O)c23)ccc(OCCN(C)C)c1Cl` [Example 134, (2R)-2-{[(5Sa)-5-{3-chloro-4-[2-(dimethylamino)ethoxy]-2-methylphenyl}-6-(4-fluorophenyl)thieno[2,3-d]pyrimidin-4-yl]oxy}-3-[2-(pyrazin-2-ylmethoxy)phenyl]propanoic acid], the IC50 in test [1] (Homo sapiens, NCI-H929, 48 h) is 0.193 µM; on Mcl-1 protein, 1.3e-08 M.
As for `Cc1cc(-c2nccc(COc3ccccc3CC(Oc3ncnc4sc(-c5ccc(F)cc5)c(-c5ccc(OCCN(C)C)c(Cl)c5C)c34)C(=O)O)n2)ccn1` [Example 136, (2R)-2-{[(5Sa)-5-{3-chloro-4-[2-(dimethylamino)ethoxy]-2-methylphenyl}-6-(4-fluorophenyl)thieno[2,3-d]pyrimidin-4-yl]oxy}-3-(2-{[2-(2-methylpyridin-4-yl)pyrimidin-4-yl]methoxy}phenyl)propanoic acid], the half-inhibitory concentration (IC50) worked out at 0.015 µM in test [1] (Homo sapiens, NCI-H929, 48 h) and 7.7e-09 M on Mcl-1 protein.
In the case of `Cc1cnccc1-c1nccc(COc2ccccc2CC(Oc2ncnc3sc(-c4ccc(F)cc4)c(-c4ccc(OCCN(C)C)c(Cl)c4C)c23)C(=O)O)n1` [Example 137, (2R)-2-{[(5Sa)-5-{3-chloro-4-[2-(dimethylamino)ethoxy]-2-methylphenyl}-6-(4-fluorophenyl)thieno[2,3-d]pyrimidin-4-yl]oxy}-3-(2-{[2-(3-methylpyridin-4-yl)pyrimidin-4-yl]methoxy}phenyl)propanoic acid], the IC50 is 0.007 µM in test [1] (Homo sapiens, NCI-H929, 48 h) and 5.5e-09 M at Mcl-1 protein.
In the case of `Cc1c(-c2c(-c3ccc(F)cc3)sc3ncnc(OC(Cc4ccccc4OCc4cnccn4)C(=O)O)c23)ccc(OCC2CCN(C)C2)c1Cl` [Example 139, (2R)-2-{[(5Sa)-5-(3-chloro-2-methyl-4-{[(3R)-1-methylpyrrolidin-3-yl]methoxy}phenyl)-6-(4-fluorophenyl)thieno[2,3-d]pyrimidin-4-yl]oxy}-3-[2-(pyrazin-2-ylmethoxy)phenyl]propanoic acid], the IC50 in test [1] came to 0.636 µM; on Mcl-1 protein, 8.5e-08 M.
With `Cc1c(-c2c(-c3ccc(F)cc3)sc3ncnc(OC(Cc4ccccc4OCc4cnccn4)C(=O)O)c23)ccc(OCC2CCN(C)C2)c1Cl` [Example 140, (2R)-2-{[(5Sa)-5-(3-chloro-2-methyl-4-{[(3S)-1-methylpyrrolidin-3-yl]methoxy}phenyl)-6-(4-fluorophenyl)thieno[2,3-d]pyrimidin-4-yl]oxy}-3-[2-(pyrazin-2-ylmethoxy)phenyl]propanoic acid], the IC50 in test [1] amounted to 0.205 µM; at Mcl-1 protein it was 2.2e-08 M.
For the compound `Cc1c(-c2c(-c3ccc(F)cc3)sc3ncnc(OC(Cc4ccccc4OCc4cnccn4)C(=O)O)c23)ccc(OCC2CCCN2C)c1Cl` [Example 143, (2R)-2-{[(5Sa)-5-{3-chloro-2-methyl-4-[(1-methylpyrrolidin-2-yl)methoxy]phenyl}-6-(4-fluorophenyl)thieno[2,3-d]pyrimidin-4-yl]oxy}-3-[2-(pyrazin-2-ylmethoxy)phenyl]propanoic acid], the IC50 in test [1] (Homo sapiens, NCI-H929, 48 h) is 1.61 µM; on Mcl-1 protein, 2.6e-08 M.
For `Cc1c(-c2c(-c3ccc(F)cc3)sc3ncnc(O[C@H](Cc4ccccc4OCc4cnccn4)C(=O)O)c23)ccc(OCC2CCCCN(C)C2)c1Cl` (stereo partly drawn) [Example 144, (2R)-2-{[(5Sa)-5-{3-chloro-2-methyl-4-[(1-methylazepan-3-yl)methoxy]phenyl}-6-(4-fluorophenyl)thieno[2,3-d]pyrimidin-4-yl]oxy}-3-[2-(pyrazin-2-ylmethoxy)phenyl]propanoic acid], the results for the IC50 (in test [1]; at Mcl-1 protein) were 1.6 µM and 1.6e-08 M, respectively.
As to `Cc1c(-c2c(-c3ccc(F)cc3)sc3ncnc(OC(Cc4ccccc4OCc4cnccn4)C(=O)O)c23)ccc(OCC2CCN(C)C2)c1Cl` [Example 145, (2R)-2-{[(5Sa)-5-{3-chloro-2-methyl-4-[(1-methylpyrrolidin-3-yl)methoxy]phenyl}-6-(4-fluorophenyl)thieno[2,3-d]pyrimidin-4-yl]oxy}-3-[2-(pyrazin-2-ylmethoxy)phenyl]propanoic acid], the IC50 in test [1] stood at 0.293 µM; at Mcl-1 protein, 1.1e-08 M.
For the compound `Cc1c(-c2c(-c3ccc(F)cc3)sc3ncnc(OC(Cc4ccccc4OCc4cnccn4)C(=O)O)c23)ccc(OCCCC2CCCN2C)c1Cl` [Example 146, (2R)-2-{[(5Sa)-5-{3-chloro-2-methyl-4-[3-(1-methylpyrrolidin-2-yl)propoxy]phenyl}-6-(4-fluorophenyl)thieno[2,3-d]pyrimidin-4-yl]oxy}-3-[2-(pyrazin-2-ylmethoxy)phenyl]propanoic acid], the half-maximal inhibitory concentration (IC50) in test [1] (Homo sapiens, NCI-H929, 48 h) is 1.16 µM; on Mcl-1 protein, 3.5e-08 M.
In the case of `Cc1c(-c2c(-c3ccc(F)cc3)sc3ncnc(OC(Cc4ccccc4OCc4cnccn4)C(=O)O)c23)ccc(OCCCN(C)C)c1Cl` [Example 147, (2R)-2-{[(5Sa)-5-{3-chloro-4-[3-(dimethylamino)propoxy]-2-methylphenyl}-6-(4-fluorophenyl)thieno[2,3-d]pyrimidin-4-yl]oxy}-3-[2-(pyrazin-2-ylmethoxy)phenyl]propanoic acid], the IC50 in test [1] (Homo sapiens, NCI-H929, 48 h) came out at 0.787 µM; on Mcl-1 protein, 2.4e-08 M.
The matching figures for `CNC(=O)COc1ccccc1CC(Oc1ncnc2sc(-c3ccc(F)o3)c(-c3ccc(OCCN4CCN(C)CC4)c(Cl)c3C)c12)C(=O)O` [Example 151, (2R)-2-{[(5Sa)-5-{3-chloro-2-methyl-4-[2-(4-methylpiperazin-1-yl)ethoxy]phenyl}-6-(5-fluorofuran-2-yl)thieno[2,3-d]pyrimidin-4-yl]oxy}-3-{2-[2-(methylamino)-2-oxoethoxy]phenyl}propanoic acid]: 0.309 µM and 3.6e-09 M.
As to `Cc1c(-c2c(-c3ccc(F)o3)sc3ncnc(OC(Cc4ccccc4OCC(=O)NC4CCCC4)C(=O)O)c23)ccc(OCCN2CCN(C)CC2)c1Cl` [Example 152, (2R)-2-{[(5Sa)-5-{3-chloro-2-methyl-4-[2-(4-methylpiperazin-1-yl)ethoxy]phenyl}-6-(5-fluorofuran-2-yl)thieno[2,3-d]pyrimidin-4-yl]oxy}-3-{2-[2-(cyclopentylamino)-2-oxoethoxy]phenyl}propanoic acid], the concentration for half-maximal inhibition (IC50) in test [1] (Homo sapiens, NCI-H929, 48 h) worked out at 0.19 µM; at Mcl-1 protein, 9.9e-09 M.
As for `Cc1c(-c2c(-c3ccc(F)o3)sc3ncnc(OC(Cc4ccccc4OCC(=O)NCc4ccccc4)C(=O)O)c23)ccc(OCCN2CCN(C)CC2)c1Cl` [Example 153, (2R)-3-{2-[2-(benzylamino)-2-oxoethoxy]phenyl}-2-{[(5Sa)-5-{3-chloro-2-methyl-4-[2-(4-methylpiperazin-1-yl)ethoxy]phenyl}-6-(5-fluorofuran-2-yl)thieno[2,3-d]pyrimidin-4-yl]oxy}propanoic acid], the concentration for half-maximal inhibition (IC50) came out at 0.146 µM in test [1] (Homo sapiens, NCI-H929, 48 h) and 5e-09 M at Mcl-1 protein.
For the compound `CCCNC(=O)COc1ccccc1CC(Oc1ncnc2sc(-c3ccc(F)o3)c(-c3ccc(OCCN4CCN(C)CC4)c(Cl)c3C)c12)C(=O)O` [Example 154, (2R)-2-{[(5Sa)-5-{3-chloro-2-methyl-4-[2-(4-methylpiperazin-1-yl)ethoxy]phenyl}-6-(5-fluorofuran-2-yl)thieno[2,3-d]pyrimidin-4-yl]oxy}-3-{2-[2-oxo-2-(propylamino)ethoxy]phenyl}propanoic acid], the IC50 was 0.1 µM in test [1] (Homo sapiens, NCI-H929, 48 h) and 6.6e-09 M at Mcl-1 protein.
`Cc1c(-c2c(-c3ccc(F)o3)sc3ncnc(OC(Cc4ccccc4OCC(=O)NCCc4ccccc4)C(=O)O)c23)ccc(OCCN2CCN(C)CC2)c1Cl` [Example 155, (2R)-2-{[(5Sa)-5-{3-chloro-2-methyl-4-[2-(4-methylpiperazin-1-yl)ethoxy]phenyl}-6-(5-fluorofuran-2-yl)thieno[2,3-d]pyrimidin-4-yl]oxy}-3-(2-{2-oxo-2-[(2-phenylethyl)amino]ethoxy}phenyl)propanoic acid]: the IC50 in test [1] (Homo sapiens, NCI-H929, 48 h) worked out at 0.189 µM; on Mcl-1 protein, 7.6e-09 M.
For `CCCCNC(=O)COc1ccccc1CC(Oc1ncnc2sc(-c3ccc(F)o3)c(-c3ccc(OCCN4CCN(C)CC4)c(Cl)c3C)c12)C(=O)O` [Example 156, (2R)-3-{2-[2-(butylamino)-2-oxoethoxy]phenyl}-2-{[(5Sa)-5-{3-chloro-2-methyl-4-[2-(4-methylpiperazin-1-yl)ethoxy]phenyl}-6-(5-fluorofuran-2-yl)thieno[2,3-d]pyrimidin-4-yl]oxy}propanoic acid], the concentration for half-maximal inhibition (IC50) in test [1] (Homo sapiens, NCI-H929, 48 h) was 0.092 µM; at Mcl-1 protein it was 7e-09 M.
As to `COCCNC(=O)COc1ccccc1CC(Oc1ncnc2sc(-c3ccc(F)o3)c(-c3ccc(OCCN4CCN(C)CC4)c(Cl)c3C)c12)C(=O)O` [Example 157, (2R)-2-{[(5Sa)-5-{3-chloro-2-methyl-4-[2-(4-methylpiperazin-1-yl)ethoxy]phenyl}-6-(5-fluorofuran-2-yl)thieno[2,3-d]pyrimidin-4-yl]oxy}-3-(2-{2-[(2-methoxyethyl)amino]-2-oxoethoxy}phenyl)propanoic acid], the IC50 in test [1] (Homo sapiens, NCI-H929, 48 h) amounted to 0.286 µM; at Mcl-1 protein it was 7e-09 M.
Taken in the same sequence, the figures for `Cc1c(-c2c(-c3ccc(F)o3)sc3ncnc(OC(Cc4ccccc4OCc4cc(C(F)(F)F)ccn4)C(=O)O)c23)ccc(OCCN2CCN(C)CC2)c1Cl` [Example 159, (2R)-2-{[(5Sa)-5-{3-chloro-2-methyl-4-[2-(4-methylpiperazin-1-yl)ethoxy]phenyl}-6-(5-fluorofuran-2-yl)thieno[2,3-d]pyrimidin-4-yl]oxy}-3-(2-{[4-(trifluoromethyl)pyridin-2-yl]methoxy}phenyl)propanoic acid] were 0.246 µM and 9.8e-09 M.
